Test results as given in ChEMBL document CHEMBL2384977, “Synthesis and biological evaluation of novel styryl benzimidazole derivatives as probes for imaging of neurofibrillary tangles in Alzheimer's disease” (Bioorg Med Chem, 2013).
One block for each molecule: values may come before it.

Columns and labels:
Type in all cases: ADME, organism-based
Details in all cases: in vivo
Brain [1] = assay: Ratio of drug level in ICR mouse brain at 0.68 to 1.32 MBq, iv measured at 2 mins to drug level in ICR mouse brain at 0.68 to 1.32 MBq, iv measured at 60 mins
Brain [2] = assay: Ratio of drug level in ddY mouse brain at 7.1 to 21.5 kBq, iv measured at 2 mins to drug level in ddY mouse brain at 7.1 to 21.5 kBq, iv measured at 60 mins
Brain [3] = assay: Ratio of drug level in ICR mouse brain at 2.6 to 3.3 MBq, iv measured at 2 mins to drug level in ICR mouse brain at 2.6 to 3.3 MBq, iv measured at 60 mins

Ratio (Brain [1]): 1.83
SMILES: Nc1ccc(-c2ccc3cc(OCC[18F])ccc3n2)cc1

Ratio (Brain [2]): 6.16
SMILES: O=C1/C(=C/c2ccc(-c3cccc([125I])c3)o2)NC(=S)N1CCc1c[nH]cn1

Ratio (Brain [3]): 5.38
SMILES: [11CH3]Nc1ccc(-c2ccc3ccccc3n2)cc1
